In ChEMBL document CHEMBL1121775, “Synthesis and antimalarial effects of N2-aryl-N4-[(dialkylamino)alkyl]- and N4-aryl-N2-[(dialkylamino)alkyl]-2,4-quinazolinediamines” (J Med Chem, 1981):
Several values for one entry are separate records, joined by “and”; a condition that tells them apart may be missing. Equal entries are not always repeated.

Assays:
Plasmodium berghei [1] = assay: Antimalarial effect against trophozoite-induced Plasmodium berghei in mice (Mus musculus) after 20 mg/kg subcutaneous dose; format: functional
Plasmodium berghei [2] = assay: Antimalarial effect against trophozoite-induced Plasmodium berghei in mice (Mus musculus) at 320 mg/kg subcutaneous dose; format: functional
Plasmodium berghei [3] = assay: Antimalarial effect against trophozoite-induced Plasmodium berghei in mice (Mus musculus) after 40 mg/kg subcutaneous dose; format: functional
Plasmodium berghei [4] = assay: Antimalarial effect against trophozoite-induced Plasmodium berghei in mice (Mus musculus) at 640 mg/kg subcutaneous dose; format: functional; conditions: 640 mg/kg
Plasmodium berghei [5] = assay: Antimalarial effect against trophozoite-induced Plasmodium berghei in mice (Mus musculus) at 160 mg/kg subcutaneous dose; format: functional
Mus musculus [6] = assay: Number of mice cured at a subcutaneous dose of 640 mg/kg.; format: functional
Plasmodium berghei [7] = assay: Antimalarial activity against trophozoite-induced Plasmodium berghei in mice (Mus musculus); format: functional
Plasmodium berghei [8] = assay: Antimalarial effect against trophozoite-induced Plasmodium berghei in mice (Mus musculus) at 80 mg/kg subcutaneous dose; format: functional
[9] = The ratio of SD90 of the quinine hydrochloride, to the SD90 of the test substance for the Dose of 6 mg/kg; format: functional
Mus musculus [10] = assay: Number of mice cured at a dose of 640 mg/kg sc; format: functional; conditions: route subcutaneous
[11] = The ratio of SD90 of the quinine hydrochloride, to the SD90 of the test substance for the Dose of 11 mg/kg; format: functional
Mus musculus [12] = assay: Number of mice cured at a subcutaneous dose of 320 mg/kg.; format: functional
Mus musculus [13] = assay: Number of toxic deaths at a dose of 320 mg/kg; format: toxicity, organism-based; parameters: dose 320 mg/kg; conditions: in vivo
Mus musculus [14] = assay: Number of toxic deaths at a dose of 640 mg/kg; format: toxicity, organism-based; parameters: dose 640 mg/kg; conditions: in vivo
[15] = The ratio of SD90 of the quinine hydrochloride, to the SD90 of the test substance for the Dose of >33 mg/kg; format: functional
[16] = The ratio of SD90 of the quinine hydrochloride, to the SD90 of the test substance for the Dose of 120 mg/kg; format: functional
[17] = The ratio of SD90 of the quinine hydrochloride, to the SD90 of the test substance for the Dose of 9.8 mg/kg; format: functional
[18] = The ratio of SD90 of the quinine hydrochloride, to the SD90 of the test substance for the Dose of >69 mg/kg; format: functional
Mus musculus [19] = assay: Number of mice cured at a dose of 320 mg/kg sc; format: functional; conditions: route subcutaneous
[20] = The ratio of SD90 of the quinine hydrochloride, to the SD90 of the test substance for the Dose of 9.3 mg/kg; format: functional
Mus musculus [21] = assay: Number of mice cured at a subcutaneous dose of 160 mg/kg.; format: functional
[22] = The ratio of SD90 of the quinine hydrochloride, to the SD90 of the test substance for the Dose of 6.3 mg/kg; format: functional
Plasmodium berghei [23] = assay: Antimalarial activity against trophozoite-induced Plasmodium berghei in mice (Mus musculus) at 160 mg/kg subcutaneous dose; format: functional; conditions: 160 mg/kg
Mus musculus [24] = assay: Antimalarial effect against trophozoite-induced Plasmodium berghei in mice (Mus musculus) at dosage of 160 mg/kg after subcutaneous administration; No. of mice (Mus musculus) surviving after 60 days 4; format: functional
Mus musculus [25] = assay: Antimalarial effect against trophozoite-induced Plasmodium berghei in mice (Mus musculus) at dosage of 80 mg/kg after subcutaneous administration; No. of mice (Mus musculus) surviving after 60 days 4; format: functional
Mus musculus [26] = assay: Number of mice cured at a dose 320 mg/kg sc; format: functional; conditions: route subcutaneous

| Compound | MST (Plasmodium berghei [1]) | MST (Plasmodium berghei [2]) | MST (Plasmodium berghei [3]; 40 mg/kg) | MST (Plasmodium berghei [4]) | MST (Plasmodium berghei [5]; 160 mg/kg) | SD90 (Plasmodium berghei [7]) | MST (Plasmodium berghei [8]) | No. of survivals (Mus musculus [10]) | further results |
| --- | --- | --- | --- | --- | --- | --- | --- | --- | --- |
| CN1CCCC1CCNc1nc(Nc2cccc(Br)c2)nc2ccccc12 (stereo unspecified) | 1.6 days | 15 days | 5.2 days and 4.5 days | 20.3 days and 21.9 days | 11.4 days and 11.7 days | 6 mg/kg/day | 7.8 days | – | No. of cured (Mus musculus [6]; 640 mg/kg): 3 and 2; Ratio [9]: 12.4 |
| OC1CCCN(CCCNc2nc(Nc3ccc(Cl)cc3)nc3ccccc23)C1 (stereo unspecified) | 0.2 days | 17.5 days | 2.2 days and 2.5 days | 26.1 days and 23.9 days | 10.4 days and 11.3 days | 11 mg/kg/day | 4.6 days | 2 | Ratio [11]: 6.8; No. of survivals (Mus musculus [12]): 2 |
| CCOc1ccc(Nc2nc(NCCN(CC)CC)c3cc(Cl)ccc3n2)cc1CN1CCCC1 | 0.2 days | 7.8 days | 0.6 days and 0.2 days | 13.3 days and 12.8 days | 4.8 days and 4.6 days | >33 mg/kg/day | 1 days | – | No. of toxic deaths (Mus musculus [13]): 2; No. of toxic deaths (Mus musculus [14]): 3; Ratio [15]: <2.3 |
| CCN(CC)CCNc1nc(Nc2cc(Cl)cc(Cl)c2)nc2ccccc12 | 0.2 days | 12.2 days | – | 22.1 days and 20.8 days | 8.2 days and 9 days | 120 mg/kg/day | 3.2 days | – | No. of survivals (Mus musculus [10]; 640 mg/kg): 2 and 3; Ratio [16]: 0.6 |
| CN1CCCC1CCNc1nc(Nc2ccc(Cl)cc2)nc2ccccc12 (stereo unspecified) | 0.8 days | 14.4 days | 1.1 days and 0.8 days | 12.2 days and 22.3 days | 10.7 days and 10.2 days | 9.8 mg/kg/day | 4.4 days | – | No. of cured (Mus musculus [6]; 640 mg/kg): 2 and 3; Ratio [17]: 7.6 |
| CCNCc1cc(Nc2nc(NC3CCC(N(C)C)CC3)c3ccccc3n2)ccc1OC (stereo unspecified) | 0.3 days | – | – | – | – | >69 mg/kg/day | 2.7 days | – | MST (Plasmodium berghei [3]): 0.5 days; MST (Plasmodium berghei [5]): 3.7 days; Ratio [18]: <1.1 |
| CN(C)C1CCC(Nc2nc(Nc3cc(Cl)cc(Cl)c3)nc3ccccc23)CC1 (stereo in doubt; 25) | – | – | 9.7 days and 9.3 days | – | 17.5 days and 16.9 days | 9.3 mg/kg/day | – | – | MST (Plasmodium berghei [1]; 20 mg/kg): 5.1 days; MST (Plasmodium berghei [2]; 320 mg/kg): 24.9 days; No. of cured (Mus musculus [19]): 4; No. of cured (Mus musculus [6]): 5; MST (Plasmodium berghei [8]; 80 mg/kg): 10.9 days; Ratio [20]: 8 |
| Clc1ccc(Nc2nc(NCCCN3CCCC3)c3ccccc3n2)cc1Cl | – | – | – | – | – | 12 mg/kg/day | – | 5 | MST (Plasmodium berghei [3]): 5.2 days; No. of survivals (Mus musculus [21]): 4; Ratio [22]: 12 |
| CN(C)C1CCC(Nc2nc(Nc3cc(Cl)cc(Cl)c3)nc3ccccc23)CC1 (stereo in doubt; 26) | – | – | – | – | – | – | – | 5 | MST (Plasmodium berghei [1]; 20 mg/kg): 3.6 days and 1.7 days; MST (Plasmodium berghei [2]; 320 mg/kg): 27.8 days; MST (Plasmodium berghei [23]): 19.1 days and 24.9 days; MST (Mus musculus [24]): 27.9 days; MST (Plasmodium berghei [8]; 80 mg/kg): 11.6 days and 9 days; MST (Mus musculus [25]): 23.9 days; No. of survivals (Mus musculus [26]): 4; No. of survivals (Mus musculus [21]; 160 mg/kg): 2 and 4; No. of survivals (Mus musculus [12]): 5 |
